Patent publication US20250213572A1, “TYK2 INHIBITORS AND USES THEREOF” (Takeda Pharmaceutical Company Limited, priority 2022, published 2025)
Marks after values point to notes of the source that are not given here.

Legend:
[1] = tested on: psoriasis lesional skin markers (epidermal thickness, K16, psoriasis gene signatures); assay: Study 102: skin punch biopsy PD markers (H&E, K16, RT-PCR, microarray); assay type: in vivo, human
Procedure: Skin PD markers are evaluated based on the change in epidermal thickness (via hematoxylin and eosin, or H&E staining) and the presence of the type I keratin K16 hyperproliferation marker.
Methods: mRNA from skin biopsies was isolated and assessed for targeted (RT-PCR) or global (microarray) gene expression. […] Numbers in parentheses are (probeset overlap of Nimbus PSTR and indicated dataset/Total # of probesets in dataset). Percent improvement is assessed as the mean % change (+/−SEM) in expression of the overlapping probesets toward baseline non-lesional expression (*** p<0.001 comparing treatment vs. placebo).

panel of 631 kinases = assay: Binding screen against a panel of 631 kinases; conditions: 1 micromolar concentration
[2] = Caco-2 (A-B Papp/Efflux Ratio); assay type: in vitro ADME; conditions: human
JAK2 = JAK2 PBMC GMCSF pSTAT5; assay type: cell-based; conditions: Homo sapiens
hERG = hERG (Homo sapiens, UniProt Q12809); assay: hERG (Patch Clamp); assay type: cell-based
hepatocytes [3] = assay: Hepatocyte predicted clearance (Hep Clpred), rat; assay type: in vitro ADME; conditions: in vitro
hepatocytes [4] = assay: Hepatocyte predicted clearance (Hep Clpred), dog; assay type: in vitro ADME; conditions: in vitro
hepatocytes [5] = assay: Hepatocyte predicted clearance (Hepatopac low turnover assay), human; assay type: in vitro ADME
[6] = In vivo pharmacokinetics, cyno; conditions: cynomolgus monkey
CYP450 1A2 = CYP450 1A2 (Homo sapiens, UniProt P05177); assay: CYP450 inhibition, 1A2; assay type: in vitro ADME
CYP450 2C9 = CYP450 2C9 (Homo sapiens, UniProt P11712); assay: CYP450 inhibition, 2C9; assay type: in vitro ADME
PXR = PXR (Homo sapiens, UniProt O75469); assay: PXR activation; assay type: cell-based; conditions: at 30 μM
hepatocytes [7] = assay: In vitro metabolism in hepatocytes and elimination route; assay type: in vitro ADME
clinical = conditions: human, in vivo

Sequence of CYP450 1A2 (P05177 whole entry): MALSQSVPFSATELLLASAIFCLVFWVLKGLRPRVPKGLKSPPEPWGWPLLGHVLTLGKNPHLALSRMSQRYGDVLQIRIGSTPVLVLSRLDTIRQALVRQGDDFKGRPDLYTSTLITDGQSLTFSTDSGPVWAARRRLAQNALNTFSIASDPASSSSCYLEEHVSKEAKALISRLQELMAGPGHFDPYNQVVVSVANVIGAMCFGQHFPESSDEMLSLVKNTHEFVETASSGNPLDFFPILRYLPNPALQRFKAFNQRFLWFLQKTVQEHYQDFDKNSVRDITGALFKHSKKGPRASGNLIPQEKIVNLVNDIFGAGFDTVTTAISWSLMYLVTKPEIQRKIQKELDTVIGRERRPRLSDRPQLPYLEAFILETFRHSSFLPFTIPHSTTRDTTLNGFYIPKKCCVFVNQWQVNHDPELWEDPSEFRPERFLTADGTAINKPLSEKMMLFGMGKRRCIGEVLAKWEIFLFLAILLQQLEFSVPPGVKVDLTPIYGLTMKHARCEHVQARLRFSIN
Sequence of hERG (Q12809 whole entry): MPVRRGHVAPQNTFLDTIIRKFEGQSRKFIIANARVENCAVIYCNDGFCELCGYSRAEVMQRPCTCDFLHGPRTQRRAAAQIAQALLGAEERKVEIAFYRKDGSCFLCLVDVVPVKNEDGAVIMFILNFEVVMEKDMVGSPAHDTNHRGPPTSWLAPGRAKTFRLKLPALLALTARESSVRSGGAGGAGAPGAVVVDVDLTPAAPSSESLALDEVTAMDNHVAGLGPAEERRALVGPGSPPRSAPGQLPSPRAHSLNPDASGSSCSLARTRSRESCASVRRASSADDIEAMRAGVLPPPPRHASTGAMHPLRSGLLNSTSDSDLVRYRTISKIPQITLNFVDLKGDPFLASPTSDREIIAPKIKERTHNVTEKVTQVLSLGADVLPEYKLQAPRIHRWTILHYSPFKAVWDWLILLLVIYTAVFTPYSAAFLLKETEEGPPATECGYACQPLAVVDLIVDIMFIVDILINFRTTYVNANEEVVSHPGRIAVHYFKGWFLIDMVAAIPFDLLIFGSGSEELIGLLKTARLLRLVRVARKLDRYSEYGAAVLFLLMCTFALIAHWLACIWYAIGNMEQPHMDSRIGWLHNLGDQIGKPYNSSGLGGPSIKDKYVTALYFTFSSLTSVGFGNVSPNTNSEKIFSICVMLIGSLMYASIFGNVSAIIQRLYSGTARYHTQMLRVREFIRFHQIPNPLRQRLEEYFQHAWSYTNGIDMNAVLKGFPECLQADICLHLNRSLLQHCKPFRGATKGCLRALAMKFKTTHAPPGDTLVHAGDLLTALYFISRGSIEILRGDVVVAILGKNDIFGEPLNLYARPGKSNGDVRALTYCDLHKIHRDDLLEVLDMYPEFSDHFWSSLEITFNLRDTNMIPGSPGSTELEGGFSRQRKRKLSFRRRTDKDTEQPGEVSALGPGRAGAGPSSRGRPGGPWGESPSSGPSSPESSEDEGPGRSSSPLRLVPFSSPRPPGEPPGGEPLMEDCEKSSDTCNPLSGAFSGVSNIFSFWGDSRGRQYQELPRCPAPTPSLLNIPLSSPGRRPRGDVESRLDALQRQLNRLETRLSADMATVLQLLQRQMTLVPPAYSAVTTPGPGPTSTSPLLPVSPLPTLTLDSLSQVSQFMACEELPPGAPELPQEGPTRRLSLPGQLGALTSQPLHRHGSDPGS
Sequence of CYP450 2C9 (P11712 whole entry): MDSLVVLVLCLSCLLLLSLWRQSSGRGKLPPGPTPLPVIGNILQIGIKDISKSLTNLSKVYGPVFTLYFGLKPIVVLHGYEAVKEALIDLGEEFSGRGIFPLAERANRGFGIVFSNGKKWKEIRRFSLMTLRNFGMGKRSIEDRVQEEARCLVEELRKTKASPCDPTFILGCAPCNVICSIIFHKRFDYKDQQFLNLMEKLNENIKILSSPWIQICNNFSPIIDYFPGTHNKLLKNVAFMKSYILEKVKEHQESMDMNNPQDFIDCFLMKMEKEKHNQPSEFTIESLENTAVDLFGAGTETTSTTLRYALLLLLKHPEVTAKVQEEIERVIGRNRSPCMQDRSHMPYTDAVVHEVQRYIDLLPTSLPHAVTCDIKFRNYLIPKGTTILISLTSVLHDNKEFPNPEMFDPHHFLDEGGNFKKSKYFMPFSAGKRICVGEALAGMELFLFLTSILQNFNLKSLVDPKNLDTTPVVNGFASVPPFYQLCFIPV
Sequence of PXR (O75469 whole entry): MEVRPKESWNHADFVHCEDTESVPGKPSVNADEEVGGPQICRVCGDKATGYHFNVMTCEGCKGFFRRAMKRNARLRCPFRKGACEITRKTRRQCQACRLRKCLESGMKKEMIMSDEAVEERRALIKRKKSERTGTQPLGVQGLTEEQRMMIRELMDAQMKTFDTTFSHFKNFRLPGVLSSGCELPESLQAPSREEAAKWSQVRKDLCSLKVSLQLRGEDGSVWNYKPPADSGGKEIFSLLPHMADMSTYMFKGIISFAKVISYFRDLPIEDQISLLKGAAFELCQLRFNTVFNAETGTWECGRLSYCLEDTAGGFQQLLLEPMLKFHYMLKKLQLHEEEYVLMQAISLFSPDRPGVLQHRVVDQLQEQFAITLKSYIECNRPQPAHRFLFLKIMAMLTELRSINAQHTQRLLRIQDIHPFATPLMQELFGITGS

In the case of `CNc1cc(Nc2cccn(-c3ccccn3)c2=O)nc2c(C(=O)N[C@@H]3CC[C@H]3OC)cnn12` [Compound 1, N-((1R,2R)-2-methoxycyclobutyl)-7-(methylamino)-5-((2-oxo-2H-[1,2′-bipyridin]-3-yl)amino)pyrazolo[1,5-a]pyrimidine-3-carboxamide], the “expression of psoriasis-related genes (KRT16, IL17A, IL17F, IL22) in skin biopsies” value ([1]; RT-PCR, 28 days treatment) is reported as “suggestive decreases in the expression of several psoriasis-related genes”, the “improvement in the expression of skin transcriptomes previously associated with psoriasis in lesional skin” value ([1]; microarray, 28 days treatment, p<0.001 compared to placebo) is reported as “up to 50%” and the “epidermal thickness and K16 biomarker expression” value ([1]; three dosing cohorts, four weeks, 17 patients evaluated) is reported as “reduced epidermal thickness and resolved expression of the K16 biomarker”. The “inhibition of PIP51K1C” value (panel of 631 kinases) was 54 % inhibition, the “kinases inhibited with >50% inhibition in panel of 631 kinases” value (panel of 631 kinases) was “Only one kinase was inhibited with >50% inhibition” and the Papp A→B [2] was 15 ×10⁻⁶ cm/s. For the same molecule, the IC50 (JAK2) was greater than 50 µM, the IC50 (hERG) was greater than 30 µM and the “Hep Clpred” value (hepatocytes [3]) was 30 mL/min/kg. The “Hep Clpred” value (hepatocytes [4]) was 15 mL/min/kg, the “Hep Clpred” value (hepatocytes [5]) was 0.69* mL/min/kg and the clearance ([6]; in vivo, 1 mg/kg, Cyno, 1 mpk IV dose, read-out: Clp, obs) was 7 mL/min/kg. It also gave a Vd ([6]; in vivo, 1 mg/kg, Cyno, 1 mpk IV dose, read-out: Vss) of 1.9 L/kg, a Tmax ([6]; in vivo, 5 mg/kg, Cyno, PO 5 mpk) of 3 h and a half-life ([6]; plasma) of 3.8 h. For the same molecule, the IC50 (CYP450 1A2) was greater than 30 µM, the IC50 (CYP450 2C9) was greater than 30 µM and the PXR activation (PXR) was 26 % of rifampicin control. For the same molecule, the route of elimination (hepatocytes [7]) was “primarily via oxidative metabolism by multiple CYP450 enzymes followed by conjugation”, the overall metabolism (hepatocytes [7]; hepatocytes) was “low overall metabolism” and the CL renal (clinical) was 1 to 5 mL/min. The Tmax (clinical) was 3 to 5 h, the AUC(0-inf) (clinical; 75 mg) was 589 to 8370 ng·h/mL and the Cmax (clinical; 75 mg) was 21.6 to 237 ng/mL. The AUC(0-inf) (clinical; 100 mg) was 10700 ng·h/mL, the AUC(0-inf) (clinical; 150 mg) was 12200 ng·h/mL and the Cmax (clinical; 200 mg) was 232 to 250 ng/mL.
